Patent publication US20110071180A1, “SUB-TYPE SELECTIVE AMIDES OF DIAZABICYCLOALKANES” (Targacept, Inc., priority 2008, published 2011)

molecular target: T1, rat α4β2 nAChR subtype (Rattus norvegicus, UniProt P09483+P12390); test: Radioligand binding, [3H]nicotine, rat cortex membranes; details: [3H]nicotine 5 nM
T1 construct: The cerebral cortex was removed and placed in 20 volumes (weight:volume) of ice-cold preparative buffer; from tissue; host or cells: rat cerebral cortex membranes (female Sprague-Dawley)
T1 sequence (P09483 31-630): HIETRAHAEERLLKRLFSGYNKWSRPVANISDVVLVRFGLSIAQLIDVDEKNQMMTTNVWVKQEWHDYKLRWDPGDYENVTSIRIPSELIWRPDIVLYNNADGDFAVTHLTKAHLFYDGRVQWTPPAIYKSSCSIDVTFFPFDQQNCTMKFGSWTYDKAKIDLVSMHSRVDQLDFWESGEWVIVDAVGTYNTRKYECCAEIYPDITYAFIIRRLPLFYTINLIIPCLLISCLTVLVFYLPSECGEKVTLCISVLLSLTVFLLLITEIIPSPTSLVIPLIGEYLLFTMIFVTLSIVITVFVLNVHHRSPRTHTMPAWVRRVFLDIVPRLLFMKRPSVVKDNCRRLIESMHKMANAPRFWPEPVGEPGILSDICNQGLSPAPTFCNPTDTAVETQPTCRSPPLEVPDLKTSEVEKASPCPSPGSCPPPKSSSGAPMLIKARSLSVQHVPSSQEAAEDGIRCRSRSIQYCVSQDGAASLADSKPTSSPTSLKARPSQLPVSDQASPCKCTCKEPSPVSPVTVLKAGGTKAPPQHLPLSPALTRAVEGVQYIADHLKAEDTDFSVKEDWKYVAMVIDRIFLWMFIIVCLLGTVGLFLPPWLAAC
T1 sequence (P12390 25-500): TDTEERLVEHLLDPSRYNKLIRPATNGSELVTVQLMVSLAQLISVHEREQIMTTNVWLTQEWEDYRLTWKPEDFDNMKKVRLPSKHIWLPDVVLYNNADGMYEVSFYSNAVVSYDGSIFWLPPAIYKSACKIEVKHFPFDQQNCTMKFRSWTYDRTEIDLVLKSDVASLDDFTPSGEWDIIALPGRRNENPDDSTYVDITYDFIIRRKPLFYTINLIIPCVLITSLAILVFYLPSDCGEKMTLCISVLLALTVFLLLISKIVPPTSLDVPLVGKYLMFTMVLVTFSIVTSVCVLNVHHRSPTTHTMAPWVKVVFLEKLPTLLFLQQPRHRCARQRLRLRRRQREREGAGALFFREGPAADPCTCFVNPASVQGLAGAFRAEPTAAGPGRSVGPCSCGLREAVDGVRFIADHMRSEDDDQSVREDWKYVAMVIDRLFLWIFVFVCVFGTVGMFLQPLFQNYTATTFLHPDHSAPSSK
Experimental: Preparation of Membranes from Rat Cortex: Rats (Female, Sprague-Dawley), weighing 150-250 g, were maintained on a 12 h light/dark cycle and were allowed free access to water and food supplied by PMI Nutrition International, Inc. Animals were anesthetized with 70% CO2, and then decapitated. Brains were removed and placed on an ice-cold platform. The cerebral cortex was removed and placed in 20 volumes (weight:volume) of ice-cold preparative buffer (137 mM NaCl, 10.7 mM KCl, 5.8 mM KH2PO4, 8 mM Na2HPO4, 20 mM HEPES (free acid), 5 mM iodoacetamide, 1.6 mM EDTA, pH 7.4); PMSF, dissolved in methanol to a final concentration of 100 μM, was added and the suspension was homogenized by Polytron. The homogenate was centrifuged at 18,000×g for 20 min at 4° C. and the resulting pellet was re-suspended in 20 volumes of ice-cold water. After 60 min incubation on ice, a new pellet was collected by centrifugation at 18,000×g for 20 min at 4° C. The final pellet was re-suspended in 10 volumes of buffer and stored at −20° C.
(§1) On the day of the assay, the frozen membranes were thawed and spun at 48,000×g for 20 min. The supernatant was decanted and discarded. The pellet was resuspended in Dulbecco's phosphate buffered saline (PBS, Life Technologies) pH 7.4 and homogenized with the Polytron for 6 seconds. Protein concentrations were determined using a Pierce BCA Protein Assay Kit, with bovine serum albumin as the standard (Pierce Chemical Company, Rockford, Ill.).
(§2) Membrane preparations (approximately 50 μg for human and 200-300 μg protein for rat α4β2) were incubated in PBS (50 μL and 100 μL respectively) in the presence of competitor compound (0.01 nM to 100 μM) and 5 nM [^3H]nicotine for 2-3 hours on ice. Incubation was terminated by rapid filtration on a multi-manifold tissue harvester (Brandel, Gaithersburg, Md.) using GF/B filters presoaked in 0.33% polyethyleneimine (w/v) to reduce non-specific binding. Tissue was rinsed 3 times in PBS, pH 7.4. Scintillation fluid was added to filters containing the washed tissue and allowed to equilibrate. Filters were then counted to determine radioactivity bound to the membranes by liquid scintillation counting (2200CA Tri-Carb LSC, Packard Instruments, 50% efficiency or Wallac Trilux 1450 MicroBeta, 40% efficiency, Perkin Elmer).
(§3) Data were expressed as disintegrations per minute (DPMs). Within each assay, each point had 2-3 replicates. The replicates for each point were averaged and plotted against the log of the drug concentration. IC50, which is the concentration of the compound that produces 50% inhibition of binding, was determined by least squares non-linear regression. Ki values were calculated using the Cheng-Prussof equation (1973): […]

Row | Compound | Ki [nM]
1 | CC(=O)N1CC2CNCC2C1 (stereo not drawn) [Example 10-1] | 20.5
2 | O=C(C1CC1)N1CC2CNCC2C1 (stereo not drawn) [Example 10-2] | 17.3
3 | O=C(C1CCCC1)N1CC2CNCC2C1 (stereo not drawn) [Example 10-3] | 27.7
4 | COCC(=O)N1CC2CNCC2C1 (stereo not drawn) [Example 10-4] | 137
5 | C=CCC(=O)N1CC2CNCC2C1 (stereo not drawn) [Example 10-5] | 22.5
6 | O=C(C1CC=CC1)N1CC2CNCC2C1 (stereo not drawn) [Example 10-7] | 28.4
7 | O=C(C1=CCCC1)N1CC2CNCC2C1 (stereo not drawn) [Example 10-8] | 116
8 | O=C(C(F)F)N1CC2CNCC2C1 (stereo not drawn) [Example 10-9] | 4.3
9 | CC(C)=CC(=O)N1CC2CNCC2C1 (stereo not drawn) [Example 10-10] | 54.2
10 | O=C(CF)N1CC2CNCC2C1 (stereo not drawn) [Example 10-11] | 62.2
11 | NC(=O)CC(=O)N1CC2CNCC2C1 (stereo not drawn) [Example 10-12] | 1390
12 | COCCC(=O)N1CC2CNCC2C1 (stereo not drawn) [Example 10-13] | 305
13 | CCC(=O)N1CC2CNCC2C1 (stereo not drawn) [Example 10-14] | 16.9
14 | CCCC(=O)N1CC2CNCC2C1 (stereo not drawn) [Example 10-15] | 112
15 | O=C(N1CC2CNCC2C1)C1(C(F)(F)F)CC1 (stereo not drawn) [Example 10-17] | 419
16 | O=C(C1CC1(F)F)N1CC2CNCC2C1 (stereo not drawn) [Example 10-18] | 6.2
17 | CC1(C)CC1C(=O)N1CC2CNCC2C1 (stereo not drawn) [Example 10-19] | 7.7
18 | CC1(C(=O)N2CC3CNCC3C2)CC1 (stereo not drawn) [Example 10-20] | 136
19 | CC1CC1C(=O)N1CC2CNCC2C1 (stereo not drawn) [Example 10-21] | 4.1

molecular target: T2, human α4β2 nAChR subtype (Homo sapiens, UniProt P17787+P43681); test: Radioligand binding, [3H]nicotine, membranes from SH-EP1/human α4β2 clonal cells; details: [3H]nicotine 5 nM, SH-EP1/human α4β2 cell membranes
T2 construct: expressed in transfected cells; host or cells: SH-EP1 clonal cells expressing human α4β2
T2 sequence (P43681 29-627 limits assumed): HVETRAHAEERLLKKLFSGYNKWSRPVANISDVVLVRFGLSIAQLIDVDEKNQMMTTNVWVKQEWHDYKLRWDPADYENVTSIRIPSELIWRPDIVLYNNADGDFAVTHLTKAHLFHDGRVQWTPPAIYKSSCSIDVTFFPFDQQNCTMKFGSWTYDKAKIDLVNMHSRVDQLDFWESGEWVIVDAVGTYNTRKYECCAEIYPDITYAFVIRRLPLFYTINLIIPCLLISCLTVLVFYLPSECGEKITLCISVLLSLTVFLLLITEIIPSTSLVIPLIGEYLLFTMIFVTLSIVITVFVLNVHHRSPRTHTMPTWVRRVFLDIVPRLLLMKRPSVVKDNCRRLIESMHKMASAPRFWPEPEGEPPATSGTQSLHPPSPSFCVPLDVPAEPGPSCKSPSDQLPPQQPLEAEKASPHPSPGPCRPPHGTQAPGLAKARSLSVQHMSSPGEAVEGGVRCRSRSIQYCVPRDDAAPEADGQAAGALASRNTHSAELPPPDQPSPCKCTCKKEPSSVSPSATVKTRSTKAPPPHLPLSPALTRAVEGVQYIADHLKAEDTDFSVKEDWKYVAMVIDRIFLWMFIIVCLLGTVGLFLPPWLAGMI
T2 sequence (P17787 26-502): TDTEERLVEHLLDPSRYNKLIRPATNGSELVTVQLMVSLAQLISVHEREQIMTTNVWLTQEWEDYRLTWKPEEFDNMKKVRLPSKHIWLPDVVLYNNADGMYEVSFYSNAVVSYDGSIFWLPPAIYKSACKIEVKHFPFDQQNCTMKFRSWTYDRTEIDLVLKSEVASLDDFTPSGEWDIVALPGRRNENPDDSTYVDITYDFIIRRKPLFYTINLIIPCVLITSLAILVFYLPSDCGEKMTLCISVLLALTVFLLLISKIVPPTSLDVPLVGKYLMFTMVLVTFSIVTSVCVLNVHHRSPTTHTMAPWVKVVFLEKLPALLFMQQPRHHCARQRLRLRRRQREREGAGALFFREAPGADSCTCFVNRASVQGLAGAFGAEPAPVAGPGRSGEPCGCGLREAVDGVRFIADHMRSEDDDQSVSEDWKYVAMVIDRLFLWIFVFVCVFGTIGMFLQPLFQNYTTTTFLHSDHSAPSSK
Experimental: Preparation of membranes from SH-EP1/human α4β2 clonal cells: Cell pellets from 40 150 mm culture dishes were pooled, and homogenized by Polytron (Kinematica GmbH, Switzerland) in 20 milliliters of ice-cold preparative buffer. The homogenate was centrifuged at 48,000 g for 20 minutes at 4° C. The resulting pellet was re-suspended in 20 mL of ice-cold preparative buffer and stored at −20° C.
as §1, §2, §3

Row | Compound | Ki [nM]
20 | CC(=O)N1CC2CNCC2C1 (stereo not drawn) [Example 10-1] | 38.5
21 | O=C(C1CC1)N1CC2CNCC2C1 (stereo not drawn) [Example 10-2] | 1.8
22 | O=C(C1CCCC1)N1CC2CNCC2C1 (stereo not drawn) [Example 10-3] | 29.6
23 | COCC(=O)N1CC2CNCC2C1 (stereo not drawn) [Example 10-4] | 323
24 | C=CCC(=O)N1CC2CNCC2C1 (stereo not drawn) [Example 10-5] | 140
25 | O=C(C1CC=CC1)N1CC2CNCC2C1 (stereo not drawn) [Example 10-7] | 72.2
26 | O=C(C1=CCCC1)N1CC2CNCC2C1 (stereo not drawn) [Example 10-8] | 296
27 | O=C(C(F)F)N1CC2CNCC2C1 (stereo not drawn) [Example 10-9] | 31.7
28 | CC(C)=CC(=O)N1CC2CNCC2C1 (stereo not drawn) [Example 10-10] | 79.7
29 | O=C(CF)N1CC2CNCC2C1 (stereo not drawn) [Example 10-11] | 45.1
30 | NC(=O)CC(=O)N1CC2CNCC2C1 (stereo not drawn) [Example 10-12] | 746
31 | COCCC(=O)N1CC2CNCC2C1 (stereo not drawn) [Example 10-13] | 220
32 | CCC(=O)N1CC2CNCC2C1 (stereo not drawn) [Example 10-14] | 8.5
33 | CCCC(=O)N1CC2CNCC2C1 (stereo not drawn) [Example 10-15] | 48.8
34 | O=C(N1CC2CNCC2C1)C1(C(F)(F)F)CC1 (stereo not drawn) [Example 10-17] | 303
35 | O=C(C1CC1(F)F)N1CC2CNCC2C1 (stereo not drawn) [Example 10-18] | 2.1
36 | CC1(C)CC1C(=O)N1CC2CNCC2C1 (stereo not drawn) [Example 10-19] | 16.9
37 | CC1(C(=O)N2CC3CNCC3C2)CC1 (stereo not drawn) [Example 10-20] | 53.9
38 | CC1CC1C(=O)N1CC2CNCC2C1 (stereo not drawn) [Example 10-21] | 4.2

molecular target: T3, α7 nAChR subtype (Rattus norvegicus, UniProt Q05941); test: Radioligand binding, [3H]MLA, rat hippocampus membranes; details: [3H]MLA 5 nM, rat hippocampus membranes; read-out: α7 Ki
T3 construct: The hippocampus was removed and placed in 10 volumes (weight:volume) of ice-cold preparative buffer; from tissue; host or cells: rat hippocampus membranes (female Sprague-Dawley)
T3 sequence (Q05941 23-502): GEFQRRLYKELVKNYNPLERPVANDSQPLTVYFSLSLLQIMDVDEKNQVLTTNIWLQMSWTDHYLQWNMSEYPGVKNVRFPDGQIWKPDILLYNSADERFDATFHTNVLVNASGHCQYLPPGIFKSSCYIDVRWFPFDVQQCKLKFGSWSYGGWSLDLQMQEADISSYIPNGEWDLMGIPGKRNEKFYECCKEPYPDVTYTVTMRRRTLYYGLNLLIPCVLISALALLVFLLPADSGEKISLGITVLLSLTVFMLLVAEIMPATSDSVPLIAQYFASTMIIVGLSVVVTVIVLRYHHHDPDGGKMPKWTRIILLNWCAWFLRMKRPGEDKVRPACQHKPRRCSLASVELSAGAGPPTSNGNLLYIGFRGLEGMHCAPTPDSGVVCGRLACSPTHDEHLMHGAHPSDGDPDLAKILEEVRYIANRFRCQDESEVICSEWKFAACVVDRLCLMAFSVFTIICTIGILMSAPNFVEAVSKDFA
Experimental: Rats (female, Sprague-Dawley), weighing 150-250 g, were maintained on a 12 h light/dark cycle and were allowed free access to water and food supplied by PMI Nutrition International, Inc. Animals were anesthetized with 70% CO2, then decapitated. Brains were removed and placed on an ice-cold platform. The hippocampus was removed and placed in 10 volumes (weight:volume) of ice-cold preparative buffer (137 mM NaCl, 10.7 mM KCl, 5.8 mM KH2PO4, 8 mM Na2HPO4, 20 mM HEPES (free acid), 5 mM iodoacetamide, 1.6 mM EDTA, pH 7.4); PMSF, dissolved in methanol to a final concentration of 100 μM, was added and the tissue suspension was homogenized by Polytron. The homogenate was centrifuged at 18,000×g for 20 min at 4° C. and the resulting pellet was re-suspended in 10 volumes of ice-cold water. After 60 min incubation on ice, a new pellet was collected by centrifugation at 18,000×g for 20 min at 4° C. The final pellet was re-suspended in 10 volumes of buffer and stored at −20° C. On the day of the assay, tissue was thawed, centrifuged at 18,000×g for 20 min, and then re-suspended in ice-cold PBS (Dulbecco's Phosphate Buffered Saline, 138 mM NaCl, 2.67 mM KCl, 1.47 mM KH2PO4, 8.1 mM Na2HPO4, 0.9 mM CaCl2, 0.5 mM MgCl2, Invitrogen/Gibco, pH 7.4) to a final concentration of approximately 2 mg protein/mL. Protein was determined by the method of Lowry et al., J. Biol. Chem. 193: 265 (1951), using bovine serum albumin as the standard.
The binding of [^3H]MLA was measured using a modification of the methods of Davies et al., Neuropharmacol. 38: 679 (1999). [^3H]MLA (Specific Activity=25-35 Ci/mmol) was obtained from Tocris. The binding of [^3H]MLA was determined using a 2 h incubation at 21° C. Incubations were conducted in 48-well micro-titre plates and contained about 200 μg of protein per well in a final incubation volume of 300 μL. The incubation buffer was PBS and the final concentration of [^3H]MLA was 5 nM. The binding reaction was terminated by filtration of the protein containing bound ligand onto glass fiber filters (GF/B, Brandel) using a Brandel Tissue Harvester at room temperature. Filters were soaked in de-ionized water containing 0.33% polyethyleneimine to reduce non-specific binding. Each filter was washed with PBS (3×1 mL) at room temperature. Non-specific binding was determined by inclusion of 50 μM non-radioactive MLA in selected wells.
The inhibition of [^3H]MLA binding by test compounds was determined by including seven different concentrations of the test compound in selected wells. Each concentration was replicated in triplicate. IC50 values were estimated as the concentration of compound that inhibited 50 percent of specific [^3H]MLA binding. Inhibition constants (Ki values), reported in nM, were calculated from the IC50 values using the method of Cheng et al., Biochem. Pharmacol. 22: 3099-3108 (1973).

Row | Compound | Ki [nM]
39 | O=C(C1CC1)N1CC2CNCC2C1 (stereo not drawn) [Example 10-2] | 919
40 | COCC(=O)N1CC2CNCC2C1 (stereo not drawn) [Example 10-4] | 12400

same assay, conditions: read-out: α7 high through-put screening (HTS) result

Row | Compound | inhibition at 5 µM [%]
41 | CC(=O)N1CC2CNCC2C1 (stereo not drawn) [Example 10-1] | < 50
42 | O=C(C1CCCC1)N1CC2CNCC2C1 (stereo not drawn) [Example 10-3] | < 50
43 | C=CCC(=O)N1CC2CNCC2C1 (stereo not drawn) [Example 10-5] | < 50
44 | O=C(C1CC=CC1)N1CC2CNCC2C1 (stereo not drawn) [Example 10-7] | < 50
45 | O=C(C1=CCCC1)N1CC2CNCC2C1 (stereo not drawn) [Example 10-8] | < 50
46 | O=C(C(F)F)N1CC2CNCC2C1 (stereo not drawn) [Example 10-9] | < 50
47 | CC(C)=CC(=O)N1CC2CNCC2C1 (stereo not drawn) [Example 10-10] | < 50
48 | O=C(CF)N1CC2CNCC2C1 (stereo not drawn) [Example 10-11] | < 50
49 | NC(=O)CC(=O)N1CC2CNCC2C1 (stereo not drawn) [Example 10-12] | < 50
50 | COCCC(=O)N1CC2CNCC2C1 (stereo not drawn) [Example 10-13] | < 50
51 | CCC(=O)N1CC2CNCC2C1 (stereo not drawn) [Example 10-14] | < 50
52 | CCCC(=O)N1CC2CNCC2C1 (stereo not drawn) [Example 10-15] | < 50
53 | O=C(N1CC2CNCC2C1)C1(C(F)(F)F)CC1 (stereo not drawn) [Example 10-17] | < 50
54 | O=C(C1CC1(F)F)N1CC2CNCC2C1 (stereo not drawn) [Example 10-18] | < 50
55 | CC1(C)CC1C(=O)N1CC2CNCC2C1 (stereo not drawn) [Example 10-19] | < 50
56 | CC1(C(=O)N2CC3CNCC3C2)CC1 (stereo not drawn) [Example 10-20] | < 50
57 | CC1CC1C(=O)N1CC2CNCC2C1 (stereo not drawn) [Example 10-21] | < 50
